How the values were obtained:
[1] = tested on: P. aeruginosa; assay: in vitro antibacterial activity (MIC assay, 96-well, absorbance at 600 nm); format: cell-based, Pseudomonas aeruginosa; conditions: for inhibition of bacterial cells: at higher concentration, P. aeruginosa
Protocol: (§1) The in vitro antibacterial activity was tested using a Gram-positive bacterial pathogen, S. aureus, and sensitive and resistant strains of a Gram-negative bacterial pathogen, P. aeruginosa using a high-throughput format in a 96-well microtiter plate, as described previously. Briefly, an inoculum of the test organism was grown to mid-log phase in a Luria broth (LB) medium containing 10 g/L tryptone, 5 g/L yeast extract, and 10 g/L sodium chloride. A 50 μL aliquot of the 100-fold diluted bacterial inoculum was placed in each test well. […]. All experiments were performed in triplicate. For each measurement, three samples in each replicate were analyzed and data were recorded as mean±standard deviation (SD). A paired two-tailed t-test was employed for mean comparison, with significance determined at p<0.05. The dcata analysis was conducted using the Excel program.
(§2) The antibacterial effectiveness of complexed FQs was assessed in comparison to uncomplexed FQs against Gram-positive Staphylococcus aureus (S. aureus) and Gram-negative Pseudomonas aeruginosa (P. aeruginosa) through a minimum inhibitory concentration (MIC) assay conducted at various concentrations. […] The percentage growth inhibition of bacterial cells treated with complexed and uncomplexed FQs was determined by comparing with the untreated control (FIGS. 13A-13C). The concentrations tested for P. aeruginosa and S. aureus varied based on the MIC of individual antibiotics. […]

[2] = tested on: S. aureus; assay: as above; format: cell-based, Staphylococcus aureus; conditions: for inhibition of bacterial cells: at higher concentration, S. aureus
Protocol: as §1, §2

[3] = partition coefficient (Ko/w) n-octanol / phosphate buffer; format: physicochemical; conditions: octanol / phosphate buffer pH 7.4, 25 °C, 24 h; complexes with 10 times higher host stock

SMILES | killing of P. aeruginosa bacteria ([1]; 4 μg/mL, 24 h, FIG. 13A) [%] | inhibition of bacterial cells [1] [%] | killing of S. aureus ([2]; 12 μg/mL, 24 h, FIG. 13A) [%] | inhibition of bacterial cells [2] [%] | log P (experimental partition coefficient Ko/w) [3] | inhibitory effect on P. aeruginosa cells ([1]; […] (so in the source), 24 h, FIG. 13B) [%] | inhibition at 128 µg/mL ([2]; Staphylococcus aureus, 128 μg/mL, 24 h, FIG. 13B, read-out: inhibitory effect on S. aureus cells) [%]
O=C(O)c1cn(C2CC2)c2cc(N3CCNCC3)c(F)cc2c1=O [CIPRO, ciprofloxacin] | 100.67±0.39 | 90 | 98.30±0.26 | 90 |  |  | 
C[C@H]1COc2c(N3CCN(C)CC3)c(F)cc3c(=O)c(C(=O)O)cn1c23 [LEVO, levofloxacin] |  | 90 |  | 90 | −0.41 |  | 
CCn1cc(C(=O)O)c(=O)c2cc(F)c(N3CCNCC3)cc21 [NOR, norfloxacin] |  | 90 |  | 90 |  | 100.43±0.17 | 97.9 ± 0.38
CC1c2cc(c(O)c(CS(=O)(=O)O)c2O)C(C)c2cc(c(O)c(CS(=O)(=O)O)c2O)C(C)c2cc(c(O)c(CS(=O)(=O)O)c2O)C(C)c2cc1c(O)c(CS(=O)(=O)O)c2O (stereo not drawn) [SRsC1, sulfonato-C-methylresorcin[4]arene] |  |  |  |  | −0.99 |  | 

Reference: patent publication US20250049946A1, “SULFONATO RESORCINARENE-COMPLEXED FLUOROQUINOLONES AND METHODS OF USE” (University of Cincinnati, priority 2023, published 2025)
